One test relates to Pik3ca^H1047R VM lesions. The conditions noted are these: mouse, in vivo; cited from earlier work.
Test [1] relates to HUVEC-TIE2-L914F-GFP vascular channels. In words: Fibrin gel bead assay. The test is classed as cell-based, human. The method, then:
Assay was performed as described(34). Briefly, coated the beads with HUVEC-GFP or HUVEC-TIE2-L914F-GFP cells (2500 beads with 1×10^6 cells) and mixed coated beads in fibrinogen solution at a concentration of ˜500 beads/ml. Then 0.625 Units/mL of thrombin and 0.5 ml beads/fibrinogen suspension were added per well in 24-well plate successively. After dotting in the 37° C.-incubator, added 1 ml EGM-2 medium and 20,000 fibroblasts per well on the top. Then beads treated by adding DMSO, Ponatinib, rapamycin or combination in the medium

Molecules are shown by their SMILES. Read-outs that look alike come from different tables or passages of the source.

As for `Cc1nc(NC(=O)N2CCC[C@H]2C(N)=O)sc1-c1ccnc(C(C)(C)C(F)(F)F)c1` [BYL719], in the test with Pik3ca^H1047R VM lesions, the VM lesion growth entry is listed as “strongly inhibited VM lesion growth” and the “cell apoptosis (cleaved caspase-3 positive cells)” value was “increased the number of cleaved caspase-3 positive cells”.
With `CO[C@H]1C[C@@H]2CC[C@@H](C)[C@@](O)(O2)C(=O)C(=O)N2CCCC[C@H]2C(=O)O[C@H]([C@H](C)C[C@@H]2CC[C@@H](OCCO)[C@H](OC)C2)CC(=O)[C@H](C)/C=C(\C)[C@@H](O)[C@@H](OC)C(=O)[C@H](C)C[C@H](C)/C=C/C=C/C=C/1C` [Everolimus, 42-O-(2-Hydroxyethyl)-rapamycin], in the test with Pik3ca^H1047R VM lesions, the VM lesion growth result is given as “prevented lesion growth” and the “cell apoptosis (cleaved caspase-3 positive cells)” value is given as “did not induce cell apoptosis”.
As to `Cc1ccc(C(=O)Nc2ccc(CN3CCN(C)CC3)c(C(F)(F)F)c2)cc1C#Cc1cnc2cccnn12` [Ponatinib, 3-(2-imidazo[1,2-b]pyridazin-3-ylethynyl)-4-methyl-N-[4-[(4-methyl-1-piperazinyl)methyl]-3-(trifluoromethyl)phenyl]-benzamide], in test [1], the “tube formation (tube area at day 11)” value is “almost completely inhibited tube formation” and the “vascular/tube area expansion from day 8 to 14” value worked out at 14.79±4.53%.
As to `CO[C@H]1C[C@@H]2CC[C@@H](C)[C@@](O)(O2)C(=O)C(=O)N2CCCC[C@H]2C(=O)O[C@H]([C@H](C)C[C@@H]2CC[C@@H](O)[C@H](OC)C2)CC(=O)[C@H](C)/C=C(\C)[C@@H](O)[C@@H](OC)C(=O)[C@H](C)C[C@H](C)/C=C/C=C/C=C/1C` [Sirolimus, Rapamycin], the “vascular/tube area expansion from day 8 to 14” value in test [1] (100 nM Ponatinib or 10 nM rapamycin added from day 8, vehicle 54.50±3.81%) came out at 20.25±3.23%.

These data come from US20180015075A1, “METHODS AND COMPOSITIONS FOR TREATMENT OF VENOUS MALFORMATION” (Children's Hospital Medical Center, priority 2016, published 2018).
